“And” between values parts separate entries of the source, which are not always exact repeats. Identical values can stand only once.
Test system: DOHH2 cells
Experiment: RT2 Glucocorticoid signaling PCR array, DOHH2 cell line (Table 4b)
Type: cell-based
Details: DOHH2, 4 days

CCN(c1cc(-c2ccc(CN3CCOCC3)cc2)cc(C(=O)NCc2c(C)cc(C)[nH]c2=O)c1C)C1CCOCC1 [Compound 44]
ACTB Ct Values: 14.519
ADARB1 Ct Values: 31.431
AFF1 Ct Values: 23.888
AK2 Ct Values: 20.173
AMPD3 Ct Values: 26.146
ANGPTL4 Ct Values: 30.820
ANXA4 Ct Values: 24.273
ARID68 Ct Values: 23.782
ASPH Ct Values: 22.823
ATF4 Ct Values: 19.190
B2M Ct Values: 18.576
BCL6 Ct Values: 21.323
BMPER Ct Values: 39.092
CALCR Ct Values: 33.360
CEBPA Ct Values: 30.676
CEBPB Ct Values: 23.925
COL4A2 Ct Values: 34.119
CREB1 Ct Values: 22.746
CREB3 Ct Values: 24.840
CREB3L4 Ct Values: 24.110
CTGF Ct Values: 32.760
CYB561 Ct Values: 31.945
DDIT4 Ct Values: 23.508
DUSP1 Ct Values: 27.132
EDN1 Ct Values: 32.260
EHD3 Ct Values: 28.852
ERRFI1 Ct Values: 30.163
FK8PS Ct Values: 21.520
FOSL2 Ct Values: 29.872
GAPDH Ct Values: 16.197
GDPD1 Ct Values: 27.570
GHRHR Ct Values: 39.644
GLUL Ct Values: 36.671
GOT1 Ct Values: 23.126
H6PD Ct Values: 24.377
HNRPLL Ct Values: 29.151
HPRT1 Ct Values: 21.561
IL1RN Ct Values: 32.271
IL6R Ct Values: 31.962
KLF9 Ct Values: 28.439
KLF13 Ct Values: 22.420
LOX Ct Values: 32.997
MERTK Ct Values: 32.456
NFKBIA Ct Values: 22.625
NR3C1 Ct Values: 22.430
PDCD7 Ct Values: 23.417
PDGFRB Ct Values: 35.193
PDP1 Ct Values: 25.175
PER1 Ct Values: 24.717
PER2 Ct Values: 23.835
PIK3R1 Ct Values: 23.712
PLEKHF1 Ct Values: 28.946
POU2F1 Ct Values: 24.003
POU2F2 Ct Values: 22.167
RASA3 Ct Values: 27.636
RGS2 Ct Values: 24.861
RHOB Ct Values: 30.745
RPLP0 Ct Values: 14.935
SESN1 Ct Values: 23.848
SGK1 Ct Values: 27.821
SLC10A6 Ct Values: 36.435
SLC19A2 Ct Values: 24.859
SLC22A5 Ct Values: 27.992
SNTA1 Ct Values: 24.550
SPHK1 Ct Values: 28.863
SPSB1 Ct Values: 26.652
STAT5A Ct Values: 23.771
STAT5B Ct Values: 22.328
TBL1XR1 Ct Values: 20.994
TNF Ct Values: 31.849
TNFAIP3 Ct Values: 27.520
TSC22D3 Ct Values: 24.752
USP2 Ct Values: 23.684
USPS4 Ct Values: 25.892
VDR Ct Values: 26.426
VLDLR Ct Values: 27.232
ZFP36 Ct Values: 23.980
ZHX3 Ct Values: 24.611
ZNF281 Ct Values: 23.541
PPC Ct Values (array control, three lines): 18.672 and 19.142 and 18.711
RTC Ct Values (array control, three lines): 21.345 and 21.410 and 21.384
ACTB ΔCT (B2M) (normalized to B2M): −4.057
ADARB1 ΔCT (B2M) (normalized to B2M): 12.855
AFF1 ΔCT (B2M) (normalized to B2M): 5.312
AK2 ΔCT (B2M) (normalized to B2M): 1.597
AMPD3 ΔCT (B2M) (normalized to B2M): 7.570
ANGPTL4 ΔCT (B2M) (normalized to B2M): 12.244
ANXA4 ΔCT (B2M) (normalized to B2M): 5.697
ASPH ΔCT (B2M) (normalized to B2M): 4.247
ATF4 ΔCT (B2M) (normalized to B2M): 0.614
B2M ΔCT (B2M) (normalized to B2M): 0.000
BCL6 ΔCT (B2M) (normalized to B2M): 2.747
BMPER ΔCT (B2M) (normalized to B2M): 20.516
CALCR ΔCT (B2M) (normalized to B2M): 15.054
CEBPA ΔCT (B2M) (normalized to B2M): 12.100
CEBPB ΔCT (B2M) (normalized to B2M): 5.349
COL4A2 ΔCT (B2M) (normalized to B2M): 15.543
CREB1 ΔCT (B2M) (normalized to B2M): 4.170
CREB3L4 ΔCT (B2M) (normalized to B2M): 5.534
CREB3 ΔCT (B2M) (normalized to B2M): 6.264
CTGF ΔCT (B2M) (normalized to B2M): 14.184
CYB561 ΔCT (B2M) (normalized to B2M): 13.369
DDIT4 ΔCT (B2M) (normalized to B2M): 4.932
DUSP1 ΔCT (B2M) (normalized to B2M): 8.556
EDN1 ΔCT (B2M) (normalized to B2M): 13.684
EHD3 ΔCT (B2M) (normalized to B2M): 10.276
ERRFI1 ΔCT (B2M) (normalized to B2M): 11.587
FK8PS ΔCT (B2M) (normalized to B2M): 2.944
FOSL2 ΔCT (B2M) (normalized to B2M): 11.296
GAPDH ΔCT (B2M) (normalized to B2M): −2.379
GDPD1 ΔCT (B2M) (normalized to B2M): 8.994
GHRHR ΔCT (B2M) (normalized to B2M): 21.068
GLUL ΔCT (B2M) (normalized to B2M): 18.095
GOT1 ΔCT (B2M) (normalized to B2M): 4.550
H6PD ΔCT (B2M) (normalized to B2M): 5.801
HNRPLL ΔCT (B2M) (normalized to B2M): 10.575
HPRT1 ΔCT (B2M) (normalized to B2M): 2.985
IL1RN ΔCT (B2M) (normalized to B2M): 13.695
IL6R ΔCT (B2M) (normalized to B2M): 13.386
IL6 ΔCT (B2M) (normalized to B2M): 15.874
KLF9 ΔCT (B2M) (normalized to B2M): 9.863
KLF13 ΔCT (B2M) (normalized to B2M): 3.844
LOX ΔCT (B2M) (normalized to B2M): 14.421
MERTK ΔCT (B2M) (normalized to B2M): 13.880
NFKBIA ΔCT (B2M) (normalized to B2M): 4.049
NR3C1 ΔCT (B2M) (normalized to B2M): 3.854
PDCD7 ΔCT (B2M) (normalized to B2M): 4.841
PDGFRB ΔCT (B2M) (normalized to B2M): 16.617
PDP1 ΔCT (B2M) (normalized to B2M): 6.599
PER1 ΔCT (B2M) (normalized to B2M): 6.141
PER2 ΔCT (B2M) (normalized to B2M): 5.259
PIK3R1 ΔCT (B2M) (normalized to B2M): 5.136
PLEKHF1 ΔCT (B2M) (normalized to B2M): 10.370
POU2F1 ΔCT (B2M) (normalized to B2M): 5.427
POU2F2 ΔCT (B2M) (normalized to B2M): 3.591
RASA3 ΔCT (B2M) (normalized to B2M): 9.060
RGS2 ΔCT (B2M) (normalized to B2M): 6.285
RHOB ΔCT (B2M) (normalized to B2M): 12.169
RPLP0 ΔCT (B2M) (normalized to B2M): −3.641
SESN1 ΔCT (B2M) (normalized to B2M): 5.272
SGK1 ΔCT (B2M) (normalized to B2M): 9.245
SLC10A6 ΔCT (B2M) (normalized to B2M): 17.859
SLC19A2 ΔCT (B2M) (normalized to B2M): 6.283
SLC22A5 ΔCT (B2M) (normalized to B2M): 9.416
SNTA1 ΔCT (B2M) (normalized to B2M): 5.974
SPHK1 ΔCT (B2M) (normalized to B2M): 10.287
SPSB1 ΔCT (B2M) (normalized to B2M): 8.076
STAT5A ΔCT (B2M) (normalized to B2M): 5.195
STAT5B ΔCT (B2M) (normalized to B2M): 3.752
TBL1XR1 ΔCT (B2M) (normalized to B2M): 2.415
TNF ΔCT (B2M) (normalized to B2M): 13.273
TNFAIP3 ΔCT (B2M) (normalized to B2M): 8.944
TSC22D3 ΔCT (B2M) (normalized to B2M): 6.176
USP2 ΔCT (B2M) (normalized to B2M): 5.108
USPS4 ΔCT (B2M) (normalized to B2M): 7.316
VDR ΔCT (B2M) (normalized to B2M): 7.850
VLDLR ΔCT (B2M) (normalized to B2M): 8.656
ZFP36 ΔCT (B2M) (normalized to B2M): 5.404
ZHX3 ΔCT (B2M) (normalized to B2M): 6.035
ZNF281 ΔCT (B2M) (normalized to B2M): 4.965
RTC ΔCT (B2M) (normalized to B2M, array control, three lines): 2.769 and 2.834 and 2.808
ADARB1 ΔΔCT (vs DMSO): 0.046
AFF1 ΔΔCT (vs DMSO): −0.363
AK2 ΔΔCT (vs DMSO): 0.272
AMPD3 ΔΔCT (vs DMSO): 0.178
ANGPTL4 ΔΔCT (vs DMSO): 0.119
ANXA4 ΔΔCT (vs DMSO): −0.111
ARID68 ΔΔCT (vs DMSO): 0.334
ASPH ΔΔCT (vs DMSO): 0.286
ATF4 ΔΔCT (vs DMSO): 0.467
BCL6 ΔΔCT (vs DMSO): 0.227
BMPER ΔΔCT (vs DMSO): 1.488
CEBPA ΔΔCT (vs DMSO): −3.545
CEBPB ΔΔCT (vs DMSO): 0.447
COL4A2 ΔΔCT (vs DMSO): 2.238
CREB1 ΔΔCT (vs DMSO): 0.249
CREB3L4 ΔΔCT (vs DMSO): 0.138
CREB3 ΔΔCT (vs DMSO): 0.344
CTGF ΔΔCT (vs DMSO): −0.518
CYB561 ΔΔCT (vs DMSO): −5.412
DDIT4 ΔΔCT (vs DMSO): 0.007
DUSP1 ΔΔCT (vs DMSO): −0.039
EDN1 ΔΔCT (vs DMSO): 1.460
EHD3 ΔΔCT (vs DMSO): −3.030
ERRFI1 ΔΔCT (vs DMSO): −1.929
FK8PS ΔΔCT (vs DMSO): −3.032
FOSL2 ΔΔCT (vs DMSO): −1.462
GDPD1 ΔΔCT (vs DMSO): 0.471
GHRHR ΔΔCT (vs DMSO): 2.393
GLUL ΔΔCT (vs DMSO): 0.971
GOT1 ΔΔCT (vs DMSO): 0.132
H6PD ΔΔCT (vs DMSO): 0.093
HNRPLL ΔΔCT (vs DMSO): −0.740
KLF9 ΔΔCT (vs DMSO): 0.181
KLF13 ΔΔCT (vs DMSO): −0.098
LOX ΔΔCT (vs DMSO): −0.132
MERTK ΔΔCT (vs DMSO): −0.108
NFKBIA ΔΔCT (vs DMSO): 0.167
NR3C1 ΔΔCT (vs DMSO): 0.261
PDCD7 ΔΔCT (vs DMSO): 0.194
PDP1 ΔΔCT (vs DMSO): −0.255
PER1 ΔΔCT (vs DMSO): 0.206
PER2 ΔΔCT (vs DMSO): −0.374
PIK3R1 ΔΔCT (vs DMSO): −0.032
PLEKHF1 ΔΔCT (vs DMSO): −0.507
POU2F1 ΔΔCT (vs DMSO): 0.058
POU2F2 ΔΔCT (vs DMSO): 0.131
RASA3 ΔΔCT (vs DMSO): 0.917
RGS2 ΔΔCT (vs DMSO): 0.504
RHOB ΔΔCT (vs DMSO): −1.483
SESN1 ΔΔCT (vs DMSO): 0.055
SGK1 ΔΔCT (vs DMSO): 0.621
SLC19A2 ΔΔCT (vs DMSO): −0.308
SLC22A5 ΔΔCT (vs DMSO): 0.033
SNTA1 ΔΔCT (vs DMSO): 0.399
SPHK1 ΔΔCT (vs DMSO): −1.381
SPSB1 ΔΔCT (vs DMSO): 0.025
STAT5A ΔΔCT (vs DMSO): −0.033
STAT5B ΔΔCT (vs DMSO): 0.258
TBL1XR1 ΔΔCT (vs DMSO): 0.030
TNF ΔΔCT (vs DMSO): 0.954
TNFAIP3 ΔΔCT (vs DMSO): −0.307
TSC22D3 ΔΔCT (vs DMSO): 0.009
USP2 ΔΔCT (vs DMSO): 0.013
USPS4 ΔΔCT (vs DMSO): −0.274
VDR ΔΔCT (vs DMSO): −0.547
VLDLR ΔΔCT (vs DMSO): 0.499
ZFP36 ΔΔCT (vs DMSO): 0.243
ZHX3 ΔΔCT (vs DMSO): −0.156
ZNF281 ΔΔCT (vs DMSO): −0.092

— patent publication US10456407B2, “Combination therapy for treating cancer” (Epizyme, Inc., priority 2015, dated 2019)
